Laboratory results from patent US20080242546A1, “Synergistic herbicidal composition containing chloroacetanilides and picolinic acids” (Dow AgroSciences LLC, priority 2007, published 2008).

What was measured:
[1] = test system: POLCO; experiment: Field trial in field corn, early postemergence weed control, visual rating; type: in vivo, polygonum convolvulus L; conditions: early post
Method: (§1) Field trials were established to evaluate weed control with herbicides applied at an early postemergence timing in field corn. Each trial was conducted as a randomized complete block design with three replications of each treatment in plots that ranged in size from 2.5×6.5 meters to 3.0×8.0 meters. Herbicide treatments in these trials included: • acetochlor at 1680 g/ha • clopyralid+picloram at 93.5+23.5 g/ha • clopyralid+picloram+aminopyralid at 72+24+12 g/ha • acetochlor+clopyralid+picloram at 1680+93.5+23.5 g/ha • acetochlor+clopyralid+picloram+aminopyralid at 1680+72+24+12 g/ha These herbicide treatments were broadcast sprayed postemergence over 1 to 3 leaf corn and 1 to 2 leaf weeds. The acetochlor formulation being used also contained furilazole safener.
(§2) The degree of weed control was visually evaluated and recorded at 40 to 71 days after application as a percent of weed control. Percent control is the total injury to the plants due to all factors including: stunting, malformation, chlorosis, necrosis, inhibition of emergence, and other types of plant injury. The control ratings range from 0 to 100 percent, where 0 represents no injury and 100 represents complete kill.
(§3) The Colby method represents a direct approach to measuring the synergistic activity of two herbicides.

[2] = test system: POLAV; experiment: as above; type: in vivo, polygonum aviculare; conditions: early post
Method: as §1, §2, §3

[3] = test system: CHEAL; experiment: as above; type: in vivo, chenopodium album L; conditions: early post
Method: as §1, §2, §3

[4] = test system: VIOAR; experiment: Field trial in oilseed rape, preemergence weed control, visual rating; type: in vivo, viola arvensis L; conditions: preemergence to weeds
Method: (§4) E=X+Y-(XY/100), […] Additional field trials were established to evaluate weed control with herbicides applied at an […] timing in oilseed rape, prior to any weed emergence. Each trial was conducted as a randomized complete block design with three replications of each treatment in plots that ranged in size from 2.5×5.o meters to 3.0×6.0 meters. […] The degree of weed control was visually evaluated and recorded at 55 to 68 days after application as a percent of weed control. Percent control is the total injury to the plants due to all factors including: stunting, malformation, chlorosis, necrosis, inhibition of emergence, and other types of plant injury.

[5] = test system: PAPRH; experiment: as above; type: in vivo, papaver rhoeas L; conditions: preemergence to weeds
Method: as §4

[6] = test system: GALAP; experiment: as above; type: in vivo, galium aparine L; conditions: preemergence to weeds
Method: as §4

[7] = 1680 g ai/ha, 40 to 71 days after application
[8] = 750 g ai/ha, 55 to 68 days after application

SMILES	percent of weed control [1, 7]	control of POLCO in words (synergistic action / acceptable control) [1]	percent of weed control [2, 7]	control of POLAV in words (synergistic action / acceptable control) [2]	control of CHEAL in words (synergistic action / acceptable control) [3]	percent of weed control [4, 8]	control of VIOAR in words (synergistic action / acceptable control) [4]	percent of weed control [5, 8]	control of PAPRH in words (synergistic action / acceptable control) [5]	percent of weed control [6, 8]	control of GALAP in words (synergistic action / acceptable control) [6]
CCOCN(C(=O)CCl)c1c(C)cccc1CC [acetochlor, 2-chloro-N-(ethoxymethyl)-N-(2-ethyl-6-methylphenyl)acetamide]	52%	did not provide acceptable control	58%	did not provide acceptable control	did not provide acceptable control	–	–	–	–	–	–
Cc1cccc(C)c1N(Cn1cccn1)C(=O)CCl [metazachlor, 2-chloro-N-(2,6-dimethylphenyl)-N-(1H-pyrazol-1-ylmethyl)acetamide]	–	–	–	–	–	0%	did not provide acceptable control	10%	did not provide acceptable control	53%	did not provide acceptable control
